In assay [1] the test system is BJ. The assay can be described thus: BJ-TERT fibroblast viability loss – cell-based, RAS-independent, luminescence, dose response (AID 1933). It counts as functional. The note with it: Homo sapiens.
The nature of assay [2]: DRD fibroblast viability loss – cell-based, non-viral oncogenic, luminescence, dose response (AID 1934). It counts as functional. Conditions: Homo sapiens.
The test system of assay [3] is BJ. The assay can be described thus: BJ-TERT-LT-ST fibroblast viability loss – cell-based, RAS-independent, luminescence, dose response (AID 1935).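 Further: BJ fibroblasts immortalized with TERT plus LT and ST oncogenes.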 It counts as functional. The note with it: Homo sapiens.
Assay [4] can be described thus: loss of viability in HepG2 cells – cell-based, CellTiter-Glo, cherry-picked, cytotoxicity control for Shn3 inhibitor project, dose response (AID 624134). It counts as functional.
Assay [5] relates to A-375. The experiment in a line: MITF: Counter assay: A375 proliferation Measured in Cell-Based System Using Plate Reader - 2084-03_Inhibitor_Dose_DryPowder_Activity. [Related pubchem assays (depositor defined):AID488944]. In kind it is functional. The note with it: Homo sapiens.
The test system of assay [6] is BJ. The assay can be described thus: cells. In kind it is functional, cell-based. Conditions: Homo sapiens.
A short description of assay [7]: non-specific 3'UTR reporter inhibition in Clone20-Shn3RL – cell-based, Renilla luciferase, cherry-picked, counter-screen for Shn3 inhibitor project, dose response (AID 624133). It counts as functional. (The purpose of a counterscreen is to sort out artefacts and off-target activity.)
The target in assay [8] is T1, Microphthalmia-associated transcription factor (Homo sapiens, UniProt O75030).
T1 sequence (O75030 whole entry): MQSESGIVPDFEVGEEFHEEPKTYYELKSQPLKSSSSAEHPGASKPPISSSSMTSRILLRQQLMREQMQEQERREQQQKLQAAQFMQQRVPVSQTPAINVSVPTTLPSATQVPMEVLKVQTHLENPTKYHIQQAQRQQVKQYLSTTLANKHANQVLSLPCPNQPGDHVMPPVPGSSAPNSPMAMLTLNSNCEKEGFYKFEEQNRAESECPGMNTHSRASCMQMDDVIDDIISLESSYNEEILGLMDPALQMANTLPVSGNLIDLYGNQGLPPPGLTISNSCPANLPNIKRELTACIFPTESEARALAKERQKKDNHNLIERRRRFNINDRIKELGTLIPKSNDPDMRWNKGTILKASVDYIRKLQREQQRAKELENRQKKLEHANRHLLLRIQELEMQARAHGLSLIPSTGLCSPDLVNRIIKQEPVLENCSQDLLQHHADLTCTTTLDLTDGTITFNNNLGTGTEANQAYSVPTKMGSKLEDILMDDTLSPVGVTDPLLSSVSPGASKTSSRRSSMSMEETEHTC
The experiment in a line: reducers of TRPM1 reporter luminescence, concentration series – cell-based, SK-MEL-5, cherry-picked, set 3, MITF inhibitor project, dose response (AID 493073).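 Further: SK-MEL-5 melanoma cells with luciferase driven by the MITF target TRPM1 promoter.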 It counts as functional.

The nature of assay [9]: reduction of Shn3 3'UTR-driven luciferase in osteoblasts – cell-based, Clone20 osteoblasts, firefly luciferase, cherry-picked, dose response (AID 624132).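 Further: firefly luciferase luminescence from reporter carrying the Shn3 3'UTR in osteoblasts.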 It counts as functional.
Assay [10] is described as follows: Luminescence Cell-Based Dose Retest to Confirm Inhibitors of Cancer Stem Cells. [Related pubchem assays (depositor defined):AID2717, AID2721]. It counts as functional. The note with it: Homo sapiens.
Assay [11] is described as follows: viability of PTEN-deleted HCT116 cells – cell-based, HCT116 PTEN knockout, dose response (AID 1047).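 Further: HCT116 colon tumor cells with PTEN knocked out; cells exposed to compound for 60 hours before readout; potency for loss of cell viability measured by luminescence.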 In kind it is functional.
The test system of assay [12] is A-375. The experiment in a line: proliferation inhibition in MITF-low A375 cells – cell-based, cherry-pick samples, set 2, counter-screen for MITF modulator project, dose response (AID 540335). In kind it is functional. Conditions: Homo sapiens.
Assay [13] is described as follows: viability of HCT116 lacking mutant beta-catenin – cell-based, human colon tumor, dose response (AID 1045).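 Further: HCT116 colon tumor cells with beta catenin knocked out; cells exposed to compound for 60 hours.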 In kind it is functional.
Assay [14] concerns the target Beta-galactosidase (Escherichia coli, UniProt Q8VNN2). The experiment in a line: detection-enzyme interference by beta-gal modulators – biochemical, E. coli enzyme, set 3, artefact control for CCR6 antagonist project, dose response (AID 504712). In kind it is functional.
Assay [15] has as its target Apelin receptor (Homo sapiens, UniProt P35414). The experiment in a line: apelin receptor antagonists, arrestin read-out – cell-based, luminescent, enzyme-fragment complementation, selectivity assay for CCR6 antagonist project, SAR follow-up (AID 588359). It counts as functional.
Assay [16] deals with Keap1/Nrf2 (Homo sapiens, UniProt Q14145). The assay can be described thus: disruptors of Keap1 binding to Nrf2 peptide – biochemical, fluorescence polarization, cherry-picked samples, dose response (AID 588683). Background: In fluorescence polarisation assays a small probe gives low polarisation when free and higher when bound to something large.

Activity calls are given as the source filed them.

Beta-galactosidase, sequence (Q8VNN2 whole entry, the tested form may be a part): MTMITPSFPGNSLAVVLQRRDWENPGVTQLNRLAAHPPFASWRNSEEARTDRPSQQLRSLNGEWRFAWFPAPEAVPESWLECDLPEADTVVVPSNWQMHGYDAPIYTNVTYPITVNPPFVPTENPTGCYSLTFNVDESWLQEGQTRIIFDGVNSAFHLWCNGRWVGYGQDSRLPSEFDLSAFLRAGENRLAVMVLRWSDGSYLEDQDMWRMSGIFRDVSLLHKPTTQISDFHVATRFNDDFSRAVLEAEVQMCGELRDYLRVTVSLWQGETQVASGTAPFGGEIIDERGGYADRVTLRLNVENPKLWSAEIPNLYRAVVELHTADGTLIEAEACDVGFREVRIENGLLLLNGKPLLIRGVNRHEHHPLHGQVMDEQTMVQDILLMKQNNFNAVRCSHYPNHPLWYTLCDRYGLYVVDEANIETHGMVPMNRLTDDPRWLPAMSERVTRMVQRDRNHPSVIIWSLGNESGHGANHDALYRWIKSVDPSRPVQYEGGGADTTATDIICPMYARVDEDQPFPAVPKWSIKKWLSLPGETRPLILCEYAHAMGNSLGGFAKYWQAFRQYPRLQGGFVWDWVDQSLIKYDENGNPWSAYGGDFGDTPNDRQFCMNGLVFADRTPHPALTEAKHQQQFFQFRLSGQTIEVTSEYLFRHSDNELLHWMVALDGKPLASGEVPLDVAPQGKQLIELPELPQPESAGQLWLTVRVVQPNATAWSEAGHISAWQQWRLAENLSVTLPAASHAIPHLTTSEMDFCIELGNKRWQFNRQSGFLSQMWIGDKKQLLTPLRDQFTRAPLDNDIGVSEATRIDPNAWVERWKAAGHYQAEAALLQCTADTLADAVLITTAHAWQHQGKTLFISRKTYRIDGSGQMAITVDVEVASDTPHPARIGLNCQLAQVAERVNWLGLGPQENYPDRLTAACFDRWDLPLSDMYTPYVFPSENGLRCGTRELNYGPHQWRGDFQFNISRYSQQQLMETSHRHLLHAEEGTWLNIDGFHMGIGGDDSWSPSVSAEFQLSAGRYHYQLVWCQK
Apelin receptor, sequence (P35414 whole entry, the tested form may be a part): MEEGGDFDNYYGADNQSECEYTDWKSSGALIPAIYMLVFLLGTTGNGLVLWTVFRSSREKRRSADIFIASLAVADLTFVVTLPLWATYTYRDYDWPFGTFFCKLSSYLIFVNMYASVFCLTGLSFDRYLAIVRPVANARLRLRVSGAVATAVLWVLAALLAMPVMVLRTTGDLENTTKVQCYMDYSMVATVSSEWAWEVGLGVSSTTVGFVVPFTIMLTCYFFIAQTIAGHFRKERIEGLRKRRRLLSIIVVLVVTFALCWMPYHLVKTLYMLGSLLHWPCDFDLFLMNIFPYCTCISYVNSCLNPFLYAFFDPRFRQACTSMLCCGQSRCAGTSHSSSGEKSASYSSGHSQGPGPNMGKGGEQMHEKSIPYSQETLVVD
Keap1/Nrf2, sequence (Q16236 whole entry): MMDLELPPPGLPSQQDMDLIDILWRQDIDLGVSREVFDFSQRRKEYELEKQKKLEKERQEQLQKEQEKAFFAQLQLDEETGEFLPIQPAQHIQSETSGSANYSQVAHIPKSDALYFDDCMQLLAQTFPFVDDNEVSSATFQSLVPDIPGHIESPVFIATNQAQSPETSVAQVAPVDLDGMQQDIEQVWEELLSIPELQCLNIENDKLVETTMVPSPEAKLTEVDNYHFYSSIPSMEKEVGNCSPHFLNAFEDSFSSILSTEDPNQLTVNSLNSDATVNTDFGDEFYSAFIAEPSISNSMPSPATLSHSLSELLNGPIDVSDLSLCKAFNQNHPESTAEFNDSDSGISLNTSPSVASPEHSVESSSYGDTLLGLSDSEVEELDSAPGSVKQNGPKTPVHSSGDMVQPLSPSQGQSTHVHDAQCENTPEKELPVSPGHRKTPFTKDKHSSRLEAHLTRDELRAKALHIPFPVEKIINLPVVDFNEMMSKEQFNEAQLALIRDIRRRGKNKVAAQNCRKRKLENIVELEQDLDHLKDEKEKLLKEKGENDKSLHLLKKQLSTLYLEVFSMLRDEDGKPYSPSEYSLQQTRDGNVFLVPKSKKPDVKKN
Keap1/Nrf2, sequence (Q14145 whole entry): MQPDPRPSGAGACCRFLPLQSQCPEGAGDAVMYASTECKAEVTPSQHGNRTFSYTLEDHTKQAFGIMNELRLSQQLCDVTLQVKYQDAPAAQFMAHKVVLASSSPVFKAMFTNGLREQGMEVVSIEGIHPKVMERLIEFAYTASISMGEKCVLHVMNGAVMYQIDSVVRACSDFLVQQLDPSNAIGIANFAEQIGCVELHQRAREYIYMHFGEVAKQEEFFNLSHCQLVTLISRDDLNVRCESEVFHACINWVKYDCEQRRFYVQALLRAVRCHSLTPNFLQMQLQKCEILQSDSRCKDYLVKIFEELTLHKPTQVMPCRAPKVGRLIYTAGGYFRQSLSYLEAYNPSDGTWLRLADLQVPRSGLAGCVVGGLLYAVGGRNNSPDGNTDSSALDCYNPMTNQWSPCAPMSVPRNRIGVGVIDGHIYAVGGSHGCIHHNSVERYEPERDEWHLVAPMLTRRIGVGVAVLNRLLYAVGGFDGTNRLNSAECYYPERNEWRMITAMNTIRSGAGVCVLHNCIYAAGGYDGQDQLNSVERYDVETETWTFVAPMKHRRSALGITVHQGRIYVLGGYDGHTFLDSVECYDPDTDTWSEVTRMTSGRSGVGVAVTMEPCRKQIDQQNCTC

On to `Cc1cccc(N2C(=O)NC(=O)/C(=C\C=C\c3ccco3)C2=O)c1`, for which the concentration giving a half-maximal response (EC50) in assay [1] was 4.02 µM (active); in assay [2], 3.62 µM (active); in [3] it was 4.93 µM (inconclusive); in [6], 11.3 µM (active). The concentration at half-maximal activity (AC50) in [4] was 25.6 µM (active); in assay [5], 28.4 µM (active); in assay [7], 26.4 µM (active); in [8], 5.75 µM (active); in assay [9], 3.06 µM (active).

On to `O=C1C(Cl)=C(Nc2ccccc2)C(=O)c2ccccc21`, for which the AC50 in assay [10] is 0.779 µM (active); in assay [8] it was 2.88 µM (active); in [12], 4.17 µM (active). The half-maximal effective concentration (EC50) was 8.47 µM (active) in assay [11] and 4.77 µM (active) in assay [13].

As to `CC(C)(C)c1ccc2c(c1)OC(C(=O)N/N=C\c1ccccn1)CO2` (configuration not stated), the IC50 in assay [14] was > 66.6 µM (inactive); in assay [15], 28.8 µM (inactive).

Turning to `O=c1cc(CN2CCCc3ccccc32)nc2sccn12`, the concentration at half-maximal activity (AC50) in [16] is 17.1 µM (active).

The term EC50 denotes the concentration that produces a half-maximal response. As usually defined, the AC50 is the concentration giving half of the maximal activity seen. Usually IC50 stands for the concentration that inhibits the measured activity by half.

For the origin of these results see ChEMBL document CHEMBL1201862, “PubChem BioAssay data set” (2004).
